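GI50 = concentration required for 50% inhibition of growth. At the TGI there is no net growth.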
Columns and labels:
Test in all cases: NCI-60 cell line screen, 384-well format
[1] = test system: HOP-92 NSCLC
[2] = test system: HT29 colon
[3] = test system: MALME-3M melanoma
[4] = test system: HS 578T breast
[5] = test system: EKVX NSCLC
[6] = test system: SN12C renal
[7] = test system: HCT-15 colon
[8] = test system: HL-60(TB) leukemia
[9] = test system: 786-0 renal
[10] = test system: SK-MEL-2 melanoma
[11] = test system: K-562 leukemia
[12] = test system: ACHN renal
[13] = test system: SK-MEL-5 melanoma
[14] = test system: KM12 colon
[15] = test system: OVCAR-5 ovarian
[16] = test system: SF-295 CNS
[17] = test system: SF-268 CNS
[18] = test system: IGROV1 ovarian
[19] = test system: MDA-MB-468 breast
[20] = test system: DU-145 prostate
[21] = test system: OVCAR-8 ovarian
[22] = test system: SW-620 colon
[23] = test system: UO-31 renal
[24] = test system: HCT-116 colon
[25] = test system: UACC-62 melanoma
[26] = test system: T-47D breast
[27] = test system: A498 renal
[28] = test system: NCI-H460 NSCLC
[29] = test system: SK-MEL-28 melanoma
[30] = test system: RXF 393 renal
[31] = test system: OVCAR-4 ovarian
[32] = test system: TK-10 renal
[33] = test system: HOP-62 NSCLC
[34] = test system: MDA-MB-435 melanoma
[35] = test system: NCI-H322M lung
[36] = test system: PC-3 prostate
[37] = test system: A549 NSCLC
[38] = test system: NCI-H522 lung
[39] = test system: SNB-19 CNS
[40] = test system: BT-549 breast
[41] = test system: SNB-75 CNS
[42] = test system: COLO 205 colon
[43] = test system: MOLT-4 leukemia
[44] = test system: NCI-H226 lung
[45] = test system: OVCAR-3 ovarian
[46] = test system: SR leukemia
[47] = test system: UACC-257 melanoma
[48] = test system: CAKI-1 renal
[49] = test system: NCI-H23 lung
[50] = test system: M14 melanoma
[51] = test system: MDA-MB-231 breast
[52] = test system: SK-OV-3 ovarian
[53] = test system: MCF7 breast
[54] = test system: SF-539 CNS
[55] = test system: U251 glioblastoma

O=C1COc2c(CCNCCN(C(=O)CCNCCc3ccc(Cl)c(Cl)c3)C3CCCCC3)ccc(O)c2N1
GI50 [1]: 1.89 µM | TGI [1]: 4.35 µM | GI50 [2]: 13.4 µM | TGI [2]: 26.2 µM | GI50 [3]: 5.14 µM | TGI [3]: 15.6 µM | GI50 [4]: 1.76 µM | TGI [4]: 3.44 µM | GI50 [5]: 12.4 µM | TGI [5]: 24.9 µM | GI50 [6]: 15.8 µM | TGI [6]: 29.3 µM | GI50 [7]: 17.8 µM | TGI [7]: 31.9 µM | GI50 [8]: 1.83 µM | TGI [8]: 3.25 µM | GI50 [9]: 15.8 µM | TGI [9]: 29.3 µM | GI50 [10]: 1.79 µM | TGI [10]: 3.18 µM | GI50 [11]: 3.24 µM | TGI [11]: 10.3 µM | GI50 [12]: 15.5 µM | TGI [12]: 28.9 µM | GI50 [13]: 6.31 µM | TGI [13]: 18.1 µM | GI50 [14]: 11.1 µM | TGI [14]: 23.3 µM | GI50 [15]: 16.2 µM | TGI [15]: 29.8 µM | GI50 [16]: 13.7 µM | TGI [16]: 26.6 µM | GI50 [17]: 4.73 µM | TGI [17]: 16.1 µM | GI50 [18]: 7.16 µM | TGI [18]: 19.7 µM | GI50 [19]: 1.83 µM | TGI [19]: 3.27 µM | GI50 [20]: 16.2 µM | TGI [20]: 29.8 µM | GI50 [21]: 15.1 µM | TGI [21]: 28.5 µM | GI50 [22]: 5.25 µM | TGI [22]: 16.8 µM | GI50 [23]: 17.8 µM | TGI [23]: 31.7 µM | GI50 [24]: 11.5 µM | TGI [24]: 23.7 µM | GI50 [25]: 2.1 µM | TGI [25]: 4.82 µM | GI50 [26]: 4.22 µM | TGI [26]: 14.6 µM | GI50 [27]: 14.9 µM | TGI [27]: 28.2 µM | GI50 [28]: 2.26 µM | TGI [28]: 4.96 µM | GI50 [29]: 4.31 µM | TGI [29]: 14.6 µM | GI50 [30]: 2.86 µM | TGI [30]: 10.8 µM | GI50 [31]: 16.1 µM | TGI [31]: 29.7 µM | GI50 [32]: 10.4 µM | TGI [32]: 22.2 µM | GI50 [33]: 14.5 µM | TGI [33]: 27.7 µM | GI50 [34]: 2.12 µM | TGI [34]: 4.44 µM | GI50 [35]: 14.2 µM | TGI [35]: 27.3 µM | GI50 [36]: 10.8 µM | TGI [36]: 22.8 µM | GI50 [37]: 17.5 µM | TGI [37]: 31.4 µM | GI50 [38]: 2.5 µM | TGI [38]: 5.7 µM | GI50 [39]: 16.8 µM | TGI [39]: 30.5 µM | GI50 [40]: 3.29 µM | TGI [40]: 12 µM | GI50 [41]: 2.28 µM | TGI [41]: 7.25 µM | GI50 [42]: 2.69 µM | TGI [42]: 6.13 µM | GI50 [43]: 2.01 µM | TGI [43]: 3.45 µM | GI50 [44]: 12.3 µM | TGI [44]: 24.8 µM | GI50 [45]: 10.3 µM | TGI [45]: 22 µM | GI50 [46]: 1.75 µM | TGI [46]: 3.14 µM | GI50 [47]: 2.75 µM | TGI [47]: 6.62 µM | GI50 [48]: 14.5 µM | TGI [48]: 27.7 µM | GI50 [49]: 14.8 µM | TGI [49]: 28 µM | GI50 [50]: 4.2 µM | TGI [50]: 12.9 µM | GI50 [51]: 1.88 µM | TGI [51]: 10.7 µM | GI50 [52]: 15.5 µM | TGI [52]: 28.9 µM | GI50 [53]: 1.89 µM | TGI [53]: 3.38 µM | GI50 [54]: 11.2 µM | TGI [54]: 23.3 µM | GI50 [55]: 5.85 µM | TGI [55]: 18 µM
